Results published in article PMC3433414, “Oral Administration of the Pimelic Diphenylamide HDAC Inhibitor HDACi 4b Is Unsuitable for Chronic Inhibition of HDAC Activity in the CNS In Vivo” (PLoS ONE, 2012).

What was measured:
human recombinant HDAC2 = molecular target: T1, human recombinant HDAC2 (Homo sapiens, UniProt Q92769); assay: Two-step fluorogenic deacetylase assay, recombinant HDAC2; assay type: biochemical
T1 construct: purified recombinant human full length HDAC1 (cat# 50051), HDAC2 (cat# 50052); purchased BPS Bioscience (San Diego, CA) 50052
T1 sequence (Q92769 whole entry): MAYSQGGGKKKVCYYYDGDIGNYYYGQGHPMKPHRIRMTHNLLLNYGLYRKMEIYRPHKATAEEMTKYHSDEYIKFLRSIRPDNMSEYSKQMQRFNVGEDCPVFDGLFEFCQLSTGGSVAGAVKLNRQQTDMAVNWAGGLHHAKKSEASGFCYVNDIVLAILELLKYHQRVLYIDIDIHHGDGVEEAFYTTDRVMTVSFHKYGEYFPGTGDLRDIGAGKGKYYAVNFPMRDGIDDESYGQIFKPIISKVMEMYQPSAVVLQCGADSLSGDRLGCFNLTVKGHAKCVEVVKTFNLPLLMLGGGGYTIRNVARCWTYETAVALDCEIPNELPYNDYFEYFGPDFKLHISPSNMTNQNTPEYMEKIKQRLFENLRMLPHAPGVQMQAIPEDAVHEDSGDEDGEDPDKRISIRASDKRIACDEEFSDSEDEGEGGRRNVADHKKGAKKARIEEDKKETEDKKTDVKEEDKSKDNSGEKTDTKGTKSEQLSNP
Description: (§1) To assess the biochemical and cellular potency of 4b and its conversion products/metabolites, we utilized the two-step fluorogenic assay which measures the HDAC-mediated catalytic conversion of synthetic acetylated lysine substrates. In brief, on deacetylation of the substrates by HDAC activity, a protease site is unmasked which allows subsequent trypsin-mediated cleavage and release of the highly flourescent AMC molecules in a subsequent step of the assay. The substrates used were Lys_Ac_AMC (Bachem I-1875) for HDAC3 and (Ac)Arg-Gly-Lys(Ac) (Bachem I-1925) for HDAC1 and HDAC2. […] However, the relatively labile and sterically more demanding trifluoracetyl group is readily hydrolyzed by the catalytically less avid Class IIa enzymes, allowing measurement of Class IIa activity using the 2-step fluorogenic assay. […]
(§2) For evaluation of the class selectivity of the compounds, we assessed inhibition against purified recombinant human full length HDAC1 (cat# 50051), HDAC2 (cat# 50052), HDAC3-NcoR2 (cat# 50003) and HDAC8 (cat# 50008): as representative of Class I activity; catalytic domain HDAC4(αα 648–1057), HDAC5 (αα 657–1123; cat # 50005), HDAC7 (αα 518-end; cat # 50007) and HDAC9 (αα 604–1066; cat # 50009) activity: representing all Class IIa activity; and full length HDAC6 (cat#50006): representing Class IIb activity. […]

HDAC3-NcoR2 = molecular target: T2, HDAC3-NcoR2 (Homo sapiens, UniProt O15379); assay: Two-step fluorogenic deacetylase assay, recombinant HDAC3; assay type: biochemical
T2 construct: purified recombinant human full length HDAC1 (cat# 50051), HDAC2 (cat# 50052), HDAC3-NcoR2 (cat# 50003); purchased BPS Bioscience (San Diego, CA) 50003
T2 sequence (O15379 whole entry): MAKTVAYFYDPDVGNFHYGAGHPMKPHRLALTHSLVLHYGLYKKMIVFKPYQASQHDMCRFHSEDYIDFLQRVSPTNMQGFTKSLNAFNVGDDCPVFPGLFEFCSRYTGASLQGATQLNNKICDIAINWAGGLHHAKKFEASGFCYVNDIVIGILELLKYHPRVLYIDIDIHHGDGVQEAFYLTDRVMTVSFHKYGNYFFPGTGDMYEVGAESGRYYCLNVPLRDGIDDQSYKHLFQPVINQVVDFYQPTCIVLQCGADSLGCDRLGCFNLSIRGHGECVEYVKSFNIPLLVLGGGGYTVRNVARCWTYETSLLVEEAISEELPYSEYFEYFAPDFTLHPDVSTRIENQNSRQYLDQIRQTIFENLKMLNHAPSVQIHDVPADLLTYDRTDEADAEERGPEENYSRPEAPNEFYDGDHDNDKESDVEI
T2 sequence (Q9Y618 395-489 partner limits assumed): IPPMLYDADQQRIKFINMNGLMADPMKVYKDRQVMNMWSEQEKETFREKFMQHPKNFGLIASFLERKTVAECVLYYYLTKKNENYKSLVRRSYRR
Description: As described, the length of compound-enzyme incubation has been reported to be critical for this class of HDAC inhibitors, where a unique time-dependent increase in affinity and subsequent potency has been observed [36]–[38]. […] To better mimic physiological conditions, our experiments were performed at 37°C as opposed to room temperature as reported in previous studies. […] To confirm that this shift was independent of the time of 4b in aqueous solution, 4b was applied immediately to the enzyme-substrate mix both after preparing in aqueous buffer, and 120 min after preparation.
To assess the biochemical and cellular potency of 4b and its conversion products/metabolites, we utilized the two-step fluorogenic assay which measures the HDAC-mediated catalytic conversion of synthetic acetylated lysine substrates. In brief, on deacetylation of the substrates by HDAC activity, a protease site is unmasked which allows subsequent trypsin-mediated cleavage and release of the highly flourescent AMC molecules in a subsequent step of the assay. The substrates used were Lys_Ac_AMC (Bachem I-1875) for HDAC3 and (Ac)Arg-Gly-Lys(Ac) (Bachem I-1925) for HDAC1 and HDAC2. The final substrates used for each enzyme assessment were carefully selected after assessing the catalytic turnover of each of these substrates against HDAC1, HDAC2 and HDAC3 respectively, and selecting the ones that performed best. To assess Class IIa enzyme activity (HDAC4, 5, 7, 9) and Class I HDAC8 activity, we used the alternative substrate Boc_Lys_TFA (Bachem I-1985), equivalent to substrate 4 of [42]. Class IIa HDACs have approximately 1000-fold less catalytic activity than Class 1 enzymes, and show only extremely low turnover of acetylated substrates due to a Tyr to His mutation in the active site. However, the relatively labile and sterically more demanding trifluoracetyl group is readily hydrolyzed by the catalytically less avid Class IIa enzymes, allowing measurement of Class IIa activity using the 2-step fluorogenic assay. Intriguingly the Boc_Lys_TFA substrate seems to show almost total selectivity for Class IIa enzymes over class I and Class IIb enzymes, with the exception of HDAC8 ([42], and internal data).
For evaluation of the class selectivity of the compounds, we assessed inhibition against purified recombinant human full length HDAC1 (cat# 50051), HDAC2 (cat# 50052), HDAC3-NcoR2 (cat# 50003) and HDAC8 (cat# 50008): as representative of Class I activity; catalytic domain HDAC4(αα 648–1057), HDAC5 (αα 657–1123; cat # 50005), HDAC7 (αα 518-end; cat # 50007) and HDAC9 (αα 604–1066; cat # 50009) activity: representing all Class IIa activity; and full length HDAC6 (cat#50006): representing Class IIb activity. With the exception of purified catalytic domain HDAC4, which was prepared for us by Emerald Biosciences (Seattle, WA), all HDAC enzymes were purchased from BPS Bioscience (San Diego, CA).
Unless otherwise stated in the text, assays were run in the following format in 384-well plates using automated liquid handling procedures. Briefly, frozen enzyme stock and compounds were diluted in assay buffer (50 mM Tris-HCl, 137 mM NaCl, 2.7 mM KCl, 1 mM MgCl2 at pH 8.0) and added to plates at concentrations sufficient to achieve a 16-point concentration-response curve from 50 µM to 1 nM at 1% DMSO final concentration, after addition of all reagents. Substrate diluted in assay buffer was then added and plates were incubated after brief shaking for 60 min at 37°C. Following incubation, a developer/stop-step was introduced to terminate the reaction and cleave the fluorescent substrate: either the addition of trypsin with 10 µM Compound 26 [44] for the Class IIa enzymes, or trypsin with 5 µM Trichostatin A (TSA) for the Class I/IIb enzymes. Plates were briefly shaken and then returned to the incubator for a further 60 min, followed by measurement of fluorescence per well (Ex 355 nm, Em 460 nm) on a Perkin Elmer EnVision. […]

human recombinant HDAC8 = molecular target: T3, human recombinant HDAC8 (Homo sapiens, UniProt Q9BY41); assay: Two-step fluorogenic deacetylase assay, recombinant HDAC8; assay type: biochemical; conditions: up to 50 µM
T3 construct: purified recombinant human full length HDAC1 (cat# 50051), HDAC2 (cat# 50052), HDAC3-NcoR2 (cat# 50003) and HDAC8 (cat# 50008); purchased BPS Bioscience (San Diego, CA) 50008
T3 sequence (Q9BY41 whole entry): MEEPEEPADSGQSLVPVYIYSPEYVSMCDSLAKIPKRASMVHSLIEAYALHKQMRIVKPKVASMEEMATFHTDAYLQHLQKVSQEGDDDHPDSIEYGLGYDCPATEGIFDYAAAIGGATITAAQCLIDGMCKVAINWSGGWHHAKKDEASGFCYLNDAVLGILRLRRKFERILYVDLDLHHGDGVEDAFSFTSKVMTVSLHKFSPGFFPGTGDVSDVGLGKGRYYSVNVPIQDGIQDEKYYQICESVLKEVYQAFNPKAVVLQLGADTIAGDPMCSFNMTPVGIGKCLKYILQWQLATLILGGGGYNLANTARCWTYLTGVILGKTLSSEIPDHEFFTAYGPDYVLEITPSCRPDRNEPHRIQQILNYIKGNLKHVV
Description: as §1, §2

FXN = test system: FXN; design: method as in PMID 16921367; conditions: cited from earlier work

Nc1ccccc1NC(=O)CCCCCC(=O)Nc1ccccc1 [Compound 4b]
IC50 (human recombinant HDAC2): 2230 nM
selectivity for HDAC3 over HDAC2 (HDAC3-NcoR2): ~9 fold
IC50 (HDAC3-NcoR2; 0 min pre-incubation with enzyme, then 60 min substrate, 37°C): 650 nM
IC50 (HDAC3-NcoR2; 2 h pre-incubation with enzyme (3 h incubation in total), 37°C): 80 nM
IC50 (HDAC3-NcoR2; no enzyme pre-incubation, applied 120 min after preparation in aqueous buffer): 650 nM
IC50 (HDAC3-NcoR2; no enzyme pre-incubation, applied immediately after preparing in aqueous buffer): 970 nM
selectivity within the Class I enzymes for HDAC3 (HDAC3-NcoR2; standard screening format): ~6 fold
IC50 (HDAC3-NcoR2; standard screening format, free base, DMSO stock): 254 nM
activity against HDAC8 (human recombinant HDAC8): No activity
increase in FXN protein levels (FXN; at 2.5 µM): 3.5 fold
enhancement of FXN mRNA (FXN; at 5 µM): 2.5 fold
